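Protocol summary: plate cells (96-well), add compound at 5 concentrations, incubate 48 h, interpolate endpoints linearly. Abbreviation: GI50, concentration required for 50% inhibition of growth.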 Active and inactive are the calls of the source. No stated cut-off is given here; in the data, active = GI50 up to about 1.1 µM and inactive = higher.
Tests used:
Assay in all cases: DTP human tumour cell line panel, 48 h
A549 = tested on: A549
CAKI-1 = tested on: CAKI-1
COLO 205 = tested on: COLO 205
HCT-15 = tested on: HCT-15
HOP-62 = tested on: HOP-62
HT-29 = tested on: HT-29
IGROV-1 = tested on: IGROV-1
NCI-H226 = tested on: NCI-H226
NCI-H522 = tested on: NCI-H522
OVCAR-5 = tested on: OVCAR-5
RPMI-8226 = tested on: RPMI-8226
RXF 393 = tested on: RXF 393
SK-OV-3 = tested on: SK-OV-3
SNB-19 = tested on: SNB-19
TK-10 = tested on: TK-10
U-251 = tested on: U-251
UACC-257 = tested on: UACC-257
UACC-62 = tested on: UACC-62
SK-MEL-5 = tested on: SK-MEL-5

Compound | GI50 (A549) | GI50 (CAKI-1) | GI50 (COLO 205) | GI50 (HCT-15) [µM] | GI50 (HOP-62) | GI50 (HT-29) | GI50 (IGROV-1) | GI50 (NCI-H226) | GI50 (NCI-H522) | GI50 (OVCAR-5) | GI50 (RPMI-8226) | GI50 (RXF 393) | GI50 (SK-OV-3) | GI50 (SNB-19) | GI50 (TK-10) | GI50 (U-251) | GI50 (UACC-257) | GI50 (UACC-62) | GI50 (SK-MEL-5)
O=C(CO[N+](=O)[O-])OC/C=C/c1ccccc1 | > 100 µM (inactive) | > 100 µM (inactive) | > 100 µM (inactive) | > 100 | > 100 µM (inactive) | > 100 µM (inactive) | > 100 µM (inactive) | > 100 µM (inactive) | > 100 µM (inactive) | > 100 µM (inactive) | > 100 µM (inactive) | > 100 µM (inactive) | > 100 µM (inactive) | > 100 µM (inactive) | > 100 µM (inactive) | > 100 µM (inactive) | > 100 µM (inactive) | > 10 µM (inactive) | –
CN(C)/C=N/c1nc2ncn(CCOC(=O)c3ccccc3)c2c(=O)[nH]1 | > 100 µM (inactive) | > 100 µM (inactive) | > 100 µM (inactive) | > 100 | > 100 µM (inactive) | > 100 µM (inactive) | > 100 µM (inactive) | > 100 µM (inactive) | > 100 µM (inactive) | > 100 µM (inactive) | > 100 µM (inactive) | > 100 µM (inactive) | > 100 µM (inactive) | – | > 100 µM (inactive) | > 100 µM (inactive) | > 100 µM (inactive) | > 100 µM (inactive) | > 100 µM (inactive)
Brc1ccc(N2C[N+](c3ccc(Br)cc3)=NC(c3ccccc3)=N2)cc1 | 18.6 µM (inactive) | 18.1 µM (inactive) | 19.1 µM (inactive) | 17.8 | 17.2 µM (inactive) | 14.1 µM (inactive) | 14.7 µM (inactive) | 27.2 µM (inactive) | 19.6 µM (inactive) | 16.4 µM (inactive) | 9.35 µM (inactive) | 22.6 µM (inactive) | 19.6 µM (inactive) | 17.3 µM (inactive) | 19.5 µM (inactive) | 19.1 µM (inactive) | 17.5 µM (inactive) | 14.8 µM (inactive) | 16 µM (inactive)
N#CC(C#N)=c1[nH]c2cccc3c2-c2c(cccc2c3=C(C#N)C#N)[nH]1 | > 100 µM (inactive) | > 100 µM (inactive) | > 100 µM (inactive) | > 100 | > 100 µM (inactive) | > 100 µM (inactive) | > 100 µM (inactive) | > 100 µM (inactive) | > 100 µM (inactive) | > 100 µM (inactive) | > 100 µM (inactive) | 79.6 µM (inactive) | > 100 µM (inactive) | > 100 µM (inactive) | > 100 µM (inactive) | > 100 µM (inactive) | > 100 µM (inactive) | > 100 µM (inactive) | > 100 µM (inactive)
Cc1nnc(N/N=C2/C(=O)Nc3c(Cl)cc(Cl)cc32)n1N | > 100 µM (inactive) | 81.1 µM (inactive) | > 100 µM (inactive) | > 100 | > 100 µM (inactive) | > 100 µM (inactive) | > 100 µM (inactive) | > 100 µM (inactive) | 34.2 µM (inactive) | > 100 µM (inactive) | > 100 µM (inactive) | 59.2 µM (inactive) | > 100 µM (inactive) | > 100 µM (inactive) | > 100 µM (inactive) | > 100 µM (inactive) | > 100 µM (inactive) | > 100 µM (inactive) | –
CCC(=O)Nc1ccc(NC(C#N)c2cccc(Oc3ccccc3)c2)cc1 (configuration not stated) | 62.5 µM (inactive) | 54.6 µM (inactive) | 40.4 µM (inactive) | 45 | 49.7 µM (inactive) | 33.8 µM (inactive) | 48.2 µM (inactive) | 30.3 µM (inactive) | 48 µM (inactive) | > 100 µM (inactive) | 23.1 µM (inactive) | 38.6 µM (inactive) | > 100 µM (inactive) | > 100 µM (inactive) | – | – | – | 52 µM (inactive) | 22.6 µM (inactive)
CCOC(=O)Nc1cc2c(c(N)n1)N=C(c1ccc(OC)cc1)CN2 | 0.00258 µM (active) | < 0.0001 µM (active) | 0.00986 µM (active) | 0.000621 | 0.00015 µM (active) | 0.000637 µM (active) | – | 0.368 µM (active) | 0.00277 µM (active) | 0.0158 µM (active) | < 0.01 µM (active) | 0.0112 µM (active) | 0.0385 µM (active) | 0.000349 µM (active) | 0.361 µM (active) | < 0.0001 µM (active) | 0.186 µM (active) | < 0.0001 µM (active) | < 0.0001 µM (active)
O=C(c1ccc(Cl)cc1Cl)C1[C@H]2C(=O)N(c3ccc(Cc4ccc(N5C(=O)[C@@H]6ON(c7ccccc7)C(C(=O)c7ccc(Cl)cc7Cl)[C@@H]6C5=O)cc4)cc3)C(=O)[C@H]2ON1c1ccccc1 (some centres not stated) | > 50 µM (inactive) | > 50 µM (inactive) | > 50 µM (inactive) | > 50 | > 50 µM (inactive) | > 50 µM (inactive) | > 50 µM (inactive) | > 50 µM (inactive) | > 50 µM (inactive) | > 50 µM (inactive) | > 50 µM (inactive) | > 50 µM (inactive) | > 50 µM (inactive) | > 50 µM (inactive) | > 50 µM (inactive) | > 50 µM (inactive) | > 50 µM (inactive) | > 50 µM (inactive) | > 50 µM (inactive)
CN(C)CCNC(=O)Cn1ccc(=O)c2cc([N+](=O)[O-])ccc21 | > 100 µM (inactive) | > 100 µM (inactive) | > 100 µM (inactive) | > 100 | > 100 µM (inactive) | > 100 µM (inactive) | > 100 µM (inactive) | > 100 µM (inactive) | > 100 µM (inactive) | > 100 µM (inactive) | > 100 µM (inactive) | > 100 µM (inactive) | > 100 µM (inactive) | > 100 µM (inactive) | > 100 µM (inactive) | > 100 µM (inactive) | > 100 µM (inactive) | > 100 µM (inactive) | > 100 µM (inactive)
COc1ccc(CCC2c3cc(OC)c(OC)cc3CCN2C)cc1OC (configuration not stated) | > 100 µM (inactive) | > 100 µM (inactive) | > 100 µM (inactive) | > 100 | > 100 µM (inactive) | > 100 µM (inactive) | > 100 µM (inactive) | > 100 µM (inactive) | > 100 µM (inactive) | > 100 µM (inactive) | > 100 µM (inactive) | > 100 µM (inactive) | > 100 µM (inactive) | > 100 µM (inactive) | > 100 µM (inactive) | > 100 µM (inactive) | > 100 µM (inactive) | > 100 µM (inactive) | > 100 µM (inactive)
CC1C=C(CCCCCCCCCCCC[C@@H](O)[C@@H]2CC[C@@H]([C@@H]3CC[C@@H](C(O)CCCCCCCCCCCCC4=C[C@H](C)OC4=O)O3)O2)C(=O)O1 (some centres not stated) | 4.5 µM (inactive) | > 100 µM (inactive) | 41.2 µM (inactive) | 57.5 | > 100 µM (inactive) | > 79.1 µM (inactive) | > 71.1 µM (inactive) | 31 µM (inactive) | 1.28 µM (inactive) | > 100 µM (inactive) | 0.518 µM (active) | > 96.8 µM (inactive) | > 100 µM (inactive) | > 42.5 µM (inactive) | > 100 µM (inactive) | 23.7 µM (inactive) | 0.387 µM (active) | > 100 µM (inactive) | 0.0783 µM (active)

Source: ChEMBL document CHEMBL1201862, “PubChem BioAssay data set” (2004)
